Assay [1] has as its target T1, RIPK1 (Homo sapiens, UniProt Q13546).
T1 construct: endogenous in cells; host or cells: HT-29 (KCLB 30038)
T1 sequence (Q13546 1-671): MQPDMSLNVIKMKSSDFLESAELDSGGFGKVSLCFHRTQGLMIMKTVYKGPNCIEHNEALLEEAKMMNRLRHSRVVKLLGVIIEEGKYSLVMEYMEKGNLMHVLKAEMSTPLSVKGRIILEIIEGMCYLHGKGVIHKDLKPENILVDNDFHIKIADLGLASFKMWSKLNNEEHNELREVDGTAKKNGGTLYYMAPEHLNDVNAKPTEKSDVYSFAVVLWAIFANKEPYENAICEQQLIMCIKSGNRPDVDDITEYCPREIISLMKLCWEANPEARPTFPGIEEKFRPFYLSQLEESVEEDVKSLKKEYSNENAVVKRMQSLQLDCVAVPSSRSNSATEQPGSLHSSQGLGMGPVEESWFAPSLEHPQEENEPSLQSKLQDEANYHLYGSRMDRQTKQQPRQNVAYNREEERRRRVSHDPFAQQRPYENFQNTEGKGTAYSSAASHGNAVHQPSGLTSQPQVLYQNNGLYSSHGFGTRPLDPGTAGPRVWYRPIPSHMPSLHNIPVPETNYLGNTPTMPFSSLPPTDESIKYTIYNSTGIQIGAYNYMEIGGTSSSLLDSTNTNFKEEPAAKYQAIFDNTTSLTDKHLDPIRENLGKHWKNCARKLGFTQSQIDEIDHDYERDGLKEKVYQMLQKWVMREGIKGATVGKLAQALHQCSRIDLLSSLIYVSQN
The assay is described as follows: Cell-based necroptosis assay for RIPK1 activity (cell viability by CCK-8). The note with it: HT-29 cells; Z-VAD-FMK 20 μM, human TNFα 10 ng/ml, SM-164 100 nM; 24 h; read-out: Cell-base RIPK1 activity: Necroptosis. Put shortly: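 HT-29 cells pretreated 30 min with 20 μM Z-VAD-FMK, then necroptosis induced with human TNFα 10 ng/ml plus SM-164 100 nM alongside RIPK1 inhibitor (0.0001–10 uM) for 24 h. Viability read by CCK-8.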

For assay [2], the target named is T1, RIPK1. The assay is described as follows: Immunoblotting of TNFα induced phospho-RIPK1 (ser 166) levels. It is filed as cell-based. The note with it: HMC3 cells; Z-VAD-FMK, human TNFα 20 ng/ml, SM-164 100 nM; 7 h, serum free media; read-out: Cell-base RIPK1 activity: phspho-RIPK1 (Ser166). Summed up:
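HMC3 human microglial cells were pretreated 30 min with Z-VAD-FMK […]. They were then given TNFα 20 ng/ml, SM-164 100 nM and inhibitor (0.1, 1, 10 nM) for 7 h in serum-free medium. BCA-normalised lysates were immunoblotted for phospho-RIPK1 Ser166.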

Take `CN1C(=O)[C@@H](NC(=O)n2cc(Cc3cccc(F)c3)cn2)COc2ccc(OCc3ccnc(F)c3)cc21` [Example 60, (S)-4-(3-fluorobenzyl)-N-(7-((2-fluoropyridin-4-yl)methoxy)-5-methyl-4-oxo-2,3,4,5-tetrahydrobenzo[b][1,4]oxazepin-3-yl)-1H-pyrazole-1-carboxamide]: the IC50 on RIPK1 [1] and at RIPK1 [2] was less than 10 nM each time.
As for `CN1C(=O)[C@@H](NC(=O)n2cc(Cc3cccc(F)c3)cn2)COc2ccc(OCC(=O)N3CCC(C)(C)CC3)cc21` [Example 37, (S)—N-(7-(2-(4,4-dimethylpiperidin-1-yl)-2-oxoethoxy)-5-methyl-4-oxo-2,3,4,5-tetrahydrobenzo[b][1,4]oxazepin-3-yl)-4-(3-fluorobenzyl)-1H-pyrazole-1-carboxamide], the IC50 at RIPK1 [1] and on RIPK1 [2] was less than 10 nM in each case.

For the origin of these results see patent US20240083892A1 (BISICHEM CO., LTD., priority 2021, published 2024).
